A short description of data set [1]: FAERS disproportionality analysis. Conditions: for EB05 TdP / EB05 VA / EB05 VT: FAERS Nov 1997 to March 31, 2015, EB05 > 2 = signal; for EB05 TdP: torsades de pointes; for EB05 VA: ventricular arrhythmia; for EB05 VT: ventricular tachycardia; for EB05: Table 2, values correspond to EB05 TdP of Table 1.
A short description of data set [2]: Incidence of cardiac dysrhythmia in Truven Health MarketScan claims data. The class given is in vivo, human. Conditions: for CD incidence / Incidence Rate per 1,000 Years: Table 2, MarketScan 2009-2014; for CD incidence: cardiac dysrhythmia cases; for Incidence Rate per 1,000 Years: cardiac dysrhythmia; for Delta from Background Rate: in vivo.
For data set [3] the following is noted: cited from earlier work; for CredibleMeds: Table 2; for CredibleMeds Classification: Table 1, as of last access May 22, 2018.
The conditions of data set [4]: Table 1; cited from earlier work.

With `COc1ccc(CCN(C)CCCC(C#N)(c2ccc(OC)c(OC)c2)C(C)C)cc1OC` (stereo not drawn), in data set [1], the “EB05 TdP” value worked out at 3.426, the “EB05 VA” value is listed as 2.104 and the “EB05 VT” value is 2.381.

As to `CC(C)NCC(O)c1ccc(NS(C)(=O)=O)cc1` (racemic) [DL-SOTALOL], in data set [2], the CD incidence is on record as 13,186, the “Incidence Rate per 1,000 Years” value is given as 124.65 per 1,000 Years and the “Delta from Background Rate” value turned out to be 101.65. In addition, in data set [1], the “EB05 TdP” value is listed as 70.355, the “EB05 VA” value amounted to 14.276, the “EB05 VT” value stood at 18.029 and the EB05 was determined as 70.36.

Regarding `CCCCc1oc2ccccc2c1C(=O)c1cc(I)c(OCCN(CC)CC)c(I)c1` [AMIODARONE], in data set [2], the CD incidence is recorded as 21,788, the “Incidence Rate per 1,000 Years” value was 162.2 per 1,000 Years and the “Delta from Background Rate” value was found to be 139.2. In addition, the CredibleMeds result in data set [3] is recorded as “risk of TdP”. In data set [1], this molecule came in with an EB05 of 21.35.

As for `COc1ccc(CCN2CCC(Nc3nc4ccccc4n3Cc3ccc(F)cc3)CC2)cc1` [ASTEMIZOLE], the “CiPA Classification” value in data set [4] is “intermediate”. Also, the “CredibleMeds Classification” value in data set [3] is “risk of TdP”. In addition, in data set [1], the “EB05 TdP” value turned out to be 18.549, the “EB05 VA” value was found to be 1.965 and the “EB05 VT” value is 15.499.

Take `CC(C)COCC(CN(Cc1ccccc1)c1ccccc1)N1CCCC1` (stereo not drawn) [BEPRIDIL]: the “CiPA Classification” value in data set [4] is “high”. Further, the “CredibleMeds Classification” value in data set [3] was “risk of TdP”. Also, in data set [1], the “EB05 TdP” value is recorded as 81.663, the “EB05 VA” value is reported as 5.155 and the “EB05 VT” value amounted to 38.276.

For `CN(C)CCCN1c2ccccc2Sc2ccc(Cl)cc21` [CHLORPROMAZINE], in data set [4], the “CiPA Classification” value is listed as “intermediate”. Further, the “CredibleMeds Classification” value in data set [3] is “risk of TdP”. In data set [1], the “EB05 TdP” value is 5.483, the “EB05 VA” value is 0.679 and the “EB05 VT” value amounted to 1.78.

As to `COc1cc(N)c(Cl)cc1C(=O)NC1CCN(CCCOc2ccc(F)cc2)CC1OC` (stereo not drawn) [CISAPRIDE], the “CiPA Classification” value in data set [4] was “intermediate”. In addition, the “CredibleMeds Classification” value in data set [3] was “risk of TdP”. Also, in data set [1], the “EB05 TdP” value amounted to 30.654, the “EB05 VA” value was determined as 5.117 and the “EB05 VT” value came out at 21.801.

In the case of `CN1CCN(C2=Nc3cc(Cl)ccc3Nc3ccccc32)CC1` [CLOZAPINE], in data set [1], the “EB05 TdP” value came out at 0.191, the “EB05 VA” value turned out to be 0.372 and the “EB05 VT” value stood at 0.291.

As for `CN(C)CC(c1ccc(O)cc1)C1(O)CCCCC1` (stereo not drawn) [DESVENLAFAXINE], in data set [2], the CD incidence is recorded as 2,222, the “Incidence Rate per 1,000 Years” value was 8.26 per 1,000 Years and the “Delta from Background Rate” value was −14.74. For the same molecule, in data set [1], the EB05 turned out to be 0.13.

Consider `COc1ccc([C@@H]2Sc3ccccc3N(CCN(C)C)C(=O)[C@@H]2OC(C)=O)cc1` [DILTIAZEM], for which, in data set [1], the “EB05 TdP” value is given as 2.62, the “EB05 VA” value was 0.925 and the “EB05 VT” value was 1.443.

Turning to `CN(CCOc1ccc(NS(C)(=O)=O)cc1)CCc1ccc(NS(C)(=O)=O)cc1` [DOFETILIDE], in data set [2], the CD incidence is listed as 2,749, the “Incidence Rate per 1,000 Years” value is 157.58 per 1,000 Years and the “Delta from Background Rate” value is 134.58. The CredibleMeds result in data set [3] is given as “risk of TdP”. Besides, in data set [1], the “EB05 TdP” value was 20.983, the “EB05 VA” value worked out at 6.235 and the EB05 is recorded as 20.98.

As to `O=c1[nH]c2ccccc2n1CCCN1CCC(n2c(=O)[nH]c3cc(Cl)ccc32)CC1` [DOMPERIDONE], in data set [1], the “EB05 TdP” value came out at 18.85, the “EB05 VA” value came out at 1.455 and the “EB05 VT” value is 1.468.

With `O=C(CCCN1CC=C(n2c(=O)[nH]c3ccccc32)CC1)c1ccc(F)cc1` [DROPERIDOL], in data set [4], the “CiPA Classification” value was “intermediate”. Moreover, the “CredibleMeds Classification” value in data set [3] is given as “risk of TdP”. Further, in data set [1], the “EB05 TdP” value worked out at 19.454, the “EB05 VA” value worked out at 2.899 and the “EB05 VT” value is on record as 4.564.

With `O=C(NCC1CCCCN1)c1cc(OCC(F)(F)F)ccc1OCC(F)(F)F` (stereo not drawn) [FLECAINIDE], the “rate of CD incidence, each patient subgroup” value in data set [2] (compared with the aggregated value, subgroups by age, gender, comorbidity index) is recorded as above 23.0. Further, in data set [1], the “EB05 VA” value turned out to be 4.123 and the “EB05 VT” value worked out at 20.567.

With `CCCCCCCN(CC)CCCC(O)c1ccc(NS(C)(=O)=O)cc1` (stereo not drawn) [IBUTILIDE], the “CiPA Classification” value in data set [4] is given as “high”. The “CredibleMeds Classification” value in data set [3] is “risk of TdP”. For the same molecule, in data set [1], the “EB05 TdP” value stood at 218.45, the “EB05 VA” value was determined as 2.901 and the “EB05 VT” value was 101.022.

Regarding `CCOC(=O)N1CCC(=C2c3ccc(Cl)cc3CCc3cccnc32)CC1` [LORATADINE], in data set [4], the “CiPA Classification” value was “very low”. Besides, in data set [2], the CD incidence is recorded as 2,016, the “Incidence Rate per 1,000 Years” value is given as 13.07 per 1,000 Years and the “Delta from Background Rate” value was −9.93. Moreover, in data set [1], the “EB05 TdP” value worked out at 4.873, the “EB05 VA” value is 0.583, the “EB05 VT” value turned out to be 3.043 and the EB05 was 4.87.

Take `CCC(=O)C(CC(C)N(C)C)(c1ccccc1)c1ccccc1` (stereo not drawn) [METHADONE]: in data set [2], the CD incidence is 1,662, the “Incidence Rate per 1,000 Years” value is recorded as 19.73 per 1,000 Years and the “Delta from Background Rate” value was −3.27. In addition, in data set [3], the CredibleMeds entry is on record as “risk of TdP”. Further, in data set [1], the “EB05 TdP” value is 36.408, the “EB05 VA” value was 1.87, the “EB05 VT” value is 3.998 and the EB05 is 36.41.

Regarding `COCCc1ccc(OCC(O)CNC(C)C)cc1` (stereo not drawn) [METOPROLOL], in data set [1], the “EB05 TdP” value came to 3.176, the “EB05 VA” value came out at 1.955 and the “EB05 VT” value was determined as 3.318.

For the molecule `COC(=O)C1=C(C)NC(C)=C(C(=O)OC)C1c1ccccc1[N+](=O)[O-]` [NIFEDIPINE], the “EB05 VT” value in data set [1] was determined as 0.42.

On to `Cc1nccn1CC1CCc2c(c3ccccc3n2C)C1=O` (stereo not drawn) [ONDANSETRON], for which the “CiPA Classification” value in data set [4] is recorded as “intermediate”. Also, the “CredibleMeds Classification” value in data set [3] is on record as “risk of TdP”. For the same molecule, in data set [1], the “EB05 TdP” value is reported as 15.333, the “EB05 VA” value is on record as 1.281 and the “EB05 VT” value is 6.395.

Regarding `Cc1nc2n(c(=O)c1CCN1CCC(c3noc4cc(F)ccc34)CC1)CCCC2O` (stereo not drawn) [PALIPERIDONE], in data set [2], the CD incidence was determined as 119, the “Incidence Rate per 1,000 Years” value is recorded as 10.13 per 1,000 Years and the “Delta from Background Rate” value is reported as −12.87. In addition, the CredibleMeds result in data set [3] is on record as “possible risk of TdP”. This molecule also came in with an EB05 in data set [1] of 0.57.

In the case of `O=c1[nH]c2ccccc2n1C1CCN(CCCC(c2ccc(F)cc2)c2ccc(F)cc2)CC1` [PIMOZIDE], the “CiPA Classification” value in data set [4] was “intermediate”. Moreover, in data set [3], the “CredibleMeds Classification” value was “risk of TdP”. In data set [1], the “EB05 TdP” value came to 17.093, the “EB05 VA” value came out at 0.25 and the “EB05 VT” value turned out to be 2.332.

For `CCCNCC(O)COc1ccccc1C(=O)CCc1ccccc1` (stereo not drawn) [PROPAFENONE], in data set [2], the CD incidence is reported as 6,643, the “Incidence Rate per 1,000 Years” value is reported as 135.17 per 1,000 Years and the “Delta from Background Rate” value came to 112.17. In data set [1], the EB05 is 3.38.

Take `C=C[C@H]1C[N@@]2CC[C@H]1C[C@@H]2[C@@H](O)c1ccnc2ccc(OC)cc12` [QUINIDINE]: in data set [2], the CD incidence was found to be 421, the “Incidence Rate per 1,000 Years” value was 87.75 per 1,000 Years and the “Delta from Background Rate” value is listed as 64.75. The CredibleMeds entry in data set [3] is on record as “risk of TdP”. Besides, in data set [1], the “EB05 TdP” value is 35.667, the “EB05 VA” value amounted to 2.768, the “EB05 VT” value came out at 12.296 and the EB05 was determined as 35.67.

Regarding `COc1ccccc1OCC(O)CN1CCN(CC(=O)Nc2c(C)cccc2C)CC1` (stereo not drawn) [RANOLAZINE], in data set [4], the “CiPA Classification” value was “very low”. In data set [3], the “CredibleMeds Classification” value is “conditional risk of TdP”. Moreover, in data set [1], the “EB05 TdP” value worked out at 22.444, the “EB05 VA” value worked out at 0.205 and the “EB05 VT” value stood at 4.375.

With `Cc1nc2n(c(=O)c1CCN1CCC(c3noc4cc(F)ccc34)CC1)CCCC2` [RISPERIDONE], the “CiPA Classification” value in data set [4] is “intermediate”. Also, in data set [2], the CD incidence was 4,066, the “Incidence Rate per 1,000 Years” value is recorded as 18.47 per 1,000 Years and the “Delta from Background Rate” value is −4.53. In data set [3], the “CredibleMeds Classification” value was “possible risk of TdP” and the CredibleMeds result is listed as “possible risk of TdP”. In data set [1], the “EB05 TdP” value is reported as 1.257, the “EB05 VA” value is given as 0.543, the “EB05 VT” value came out at 0.706 and the EB05 is 1.26.

As to `CC/C(=C(\c1ccccc1)c1ccc(OCCN(C)C)cc1)c1ccccc1` [TAMOXIFEN], in data set [1], the “EB05 TdP” value turned out to be 0.077, the “EB05 VA” value is listed as 0.06 and the “EB05 VT” value amounted to 0.172.

As to `CC(C)(C)c1ccc(C(O)CCCN2CCC(C(O)(c3ccccc3)c3ccccc3)CC2)cc1` (stereo not drawn) [TERFENADINE], the “CiPA Classification” value in data set [4] is “intermediate”. The “CredibleMeds Classification” value in data set [3] is given as “risk of TdP”. Besides, in data set [1], the “EB05 TdP” value came to 24.417, the “EB05 VA” value amounted to 3.085 and the “EB05 VT” value was determined as 9.397.

Take `COc1cc2c(Nc3ccc(Br)cc3F)ncnc2cc1OCC1CCN(C)CC1` [VANDETANIB]: in data set [4], the “CiPA Classification” value is reported as “high”. For the same molecule, the “CredibleMeds Classification” value in data set [3] is reported as “risk of TdP”. For the same molecule, in data set [1], the “EB05 TdP” value was 0.546.
